Results as given in PMC10455244, “Alpha-Mangostin: A Potent Inhibitor of TRPV3 and Pro-Inflammatory Cytokine Secretion in Keratinocytes” (International Journal of Molecular Sciences, 2023).

Columns and labels:
[1] = tested on: TRPV3 (G573C)-expressing HEK 293T cells; assay: cells; format: cell-based; settings: Homo sapiens, 24 h, read-out: Cell viability (normalized O.D., compared with mock cells)
Source text: (§1) Figure 4 Alpha-mangostin inhibited the activity of hyperactive TRPV3 mutant channels and rescued mutation-induced cell death. (A) Alpha-mangostin inhibited the channel current in representative TRPV3 (G573S)- and TRPV3 (G573C)-expressing HEK 293T cells. […] Currents were normalized to the response at −100 mV before adding alpha-mangostin. (C) Alpha-mangostin inhibited TRPV3-mediated intracellular calcium increase in TRPV3 (G573S)-expressing HEK 293T cells. […] The bar graph on the right summarizes the change in the intracellular calcium rise inhibited by alpha-mangostin. Cells were perfused with calcium-free solutions containing 0 or 1 µM alpha-mangostin or 10 µM 74a before changing to 1.3 mM Ca^2+ solutions containing the same substance concentration. (D) Alpha-mangostin inhibited TRPV3-mediated intracellular calcium increase in TRPV3 (G573C)-expressing HEK 293T cells. […] The bar graph on the right summarizes the change in the intracellular calcium rise inhibited by alpha-mangostin. Cells were perfused with calcium-free solutions containing 0 or 1 µM alpha-mangostin or 10 µM 74a before changing to 1.3 mM Ca^2+ solutions containing the same substance concentration. […]
(§2) The cell counting kit-8 (CCK8; Dojindo Laboratories, Kumamoto, Japan) was employed for viability assay. […] The optical density (O.D., 450 nm) of each well was measured after incubating the cells with CCK-8 solution ([…]) for 2 h. […]

[2] = tested on: TRPV3 (G573S)-expressing HEK 293T cells; assay: cells; format: cell-based; settings: Homo sapiens, 24 h, read-out: Cell viability (normalized O.D., compared with mock cells)
Source text: as §1, §2

[3] = tested on: IL-6; assay: ELISA, carvacrol-induced IL-6 release in NHEK; format: cell-based, human; settings: 1 µM with 300 µM carvacrol, 24 h
Source text: Constitutive activation of TRPV3 due to continuous stimulation or the presence of Olmsted mutations causes noticeable skin inflammation due to the increased secretion of pro-inflammatory cytokines from the keratinocytes. Besides, in atopic dermatitis (AD), cytokine release from keratinocytes contributes to the inflammatory environment, which drives many characteristic AD symptoms. Therefore, we determined the effect of TRPV3 activation on cytokine release instead of TRPV3 expression and evaluated whether alpha-mangostin suppressed TRPV3-mediated cytokine secretion in normal human keratinocytes. The levels of secreted cytokines (interleukin (IL)-6, IL-8, and tumor necrosis factor-alpha (TNF-α)) were measured using enzyme-linked Immunosorbent assay (ELISA) kits due to their high sensitivity and quantitation ability. The cells were induced with 300 µM carvacrol, with or without 1 µM alpha-mangostin, and 10 µM 74a.
Figure 5 Alpha-mangostin (α-MG) inhibited carvacrol-induced cytokine release in NHEK cells and rescued carvacrol-induced cell death. (A) Alpha-mangostin inhibited the carvacrol-induced release of IL-8 and IL-6 in NHEK. Cells were induced by 300 µM carvacrol with or without either 1 µM alpha-mangostin or 10 µM 74a for 24 h before the ELISA assay. (B) Alpha-mangostin reduced cell death caused by carvacrol in human keratinocytes. […]

[4] = tested on: human keratinocytes; format: cell-based; settings: 0.3 µM with 500 µM carvacrol, 24 h
Method: Figure 5 Alpha-mangostin (α-MG) inhibited carvacrol-induced cytokine release in NHEK cells and rescued carvacrol-induced cell death. (A) Alpha-mangostin inhibited the carvacrol-induced release of IL-8 and IL-6 in NHEK. Cells were induced by 300 µM carvacrol with or without either 1 µM alpha-mangostin or 10 µM 74a for 24 h before the ELISA assay. (B) Alpha-mangostin reduced cell death caused by carvacrol in human keratinocytes. Cells were induced by 500 µM carvacrol with or without either 0.3 µM alpha-mangostin or 10 µM 74a for 24 h. The optical density (O.D.) values were normalized to those of the untreated cells. Data are shown as means ± SEM. **** p < 0.0001.
Strong activation of TRPV3 in keratinocytes by carvacrol at concentrations higher than 300 µM was reported to cause cell death. Therefore, we examined the effect of alpha-mangostin in keratinocytes exposed to 500 µM carvacrol.
as §2, with “assay. Keratinocytes (10^4 cells/well) plated in 96-well plates were incubated for about one day before exposing them to alpha-mangostin for 24 h.” for “assay.”

COc1c(O)cc2oc3cc(O)c(CC=C(C)C)c(O)c3c(=O)c2c1CC=C(C)C [Alpha-mangostin]
viability at 1 µM [1]: 93.5% | viability at 1 µM [2]: 86.8% | Effect on IL-6 levels [3]: slightly decreased | Effect on carvacrol-induced decrease of cell viability [4]: significantly reversed
